Legend:
[1] = tested on: dimethylnitrosamine induced liver fibrosis; details: cited from earlier work
[2] = tested on: Phospho-PKB in U87MG cells; test: Detection of phospho-PKB in U87MG cells by ELISA; type: cell-based; details: Homo sapiens, U-87 MG; assay not given; follows the PI3K/DNA-PK/phospho-PKB U87MG methods
Experimental: U87MG cells (human glioblastoma, ATCC No. HTB-14) are trypsinized, counted in a CASY cell counter (Schärffe systems, Göttingen, Germany), diluted in fresh complete DMEM high glucose medium to load, per well, 150 μL cell suspension containing 4×10^4 cells, and test plates incubated for 18 hours. In parallel, 50 μL of coating antibody, at the desired concentration in PBS/O is loaded in each well of the ELISA plates, and plates are kept for 2 hours at room temperature. This ELISA assays is performed in black flat-bottom 96-well plates (Microtest™, Falcon Becton-Dickinson, Ref.: 353941) sealed with Plate Sealers (Costar-Corning, Ref: 3095). Medium in plates is discarded and replaced by complete DMEM high glucose medium containing either 0.1% DMSO or 0.1% inhibitor at titers (7) between […] in DMSO. After 30 minutes of contact, the medium is quickly removed by aspiration, plates are then placed on ice and immediately cells lyzed with 70 μL of Lysis buffer. In parallel, the 96 wells plates prepared with the coating antibody (1/250 diluted (in PBS/O) Anti-Akt1 C-20, goat, Santa-Cruz-1618, Santa Cruz Biotechnology, Inc., Santa Cruz, Calif., USA) are washed 3 times for 1 minute with PBS/O containing 0.05% Tween 20 and 0.1% Top-Blocks (derivative of gelatine that blocks unspecific binding sites on surfaces; Sigma-Aldrich, Fluka, Buchs, Switzerland, Ref.: 37766), and remaining protein binding sites blocked to prevent non-specific interactions with 200 μL of PBS containing 3% Top Block®, for 2 hours at room temperature. Well content is replaced with 50 μL of samples from treated cells, and plates are incubated for 3 hours at 4° C. The ELISA assays are always done in parallel with the following controls, in 6 replicates: U87MG (untreated control) or Lysis buffer alone (LB). […] The luminescence is read immediately on a Top-Count NXT (Packard Bioscience) luminometer.

[3] = given therapeutically to rat, 3 weeks treatment

| IC50 [2] | SMILES | side effects ([1]; during the 3 weeks treatment) | inhibited extracellular matrix deposition [1, 3] | prevented death rate [1, 3] |
| --- | --- | --- | --- | --- |
| – | c1ccc(-c2cc(-c3cn[nH]c3-c3ccccn3)ccn2)cc1 [GW6604] | no obvious side effects | 60% | 40% |
| 666 nM | OC1CCC(Nc2ccc3ncc(-c4ccc(-n5cncn5)cc4)n3n2)CC1 (stereo not drawn) [Example 1.8, 4-[3-(4-[1,2,4]Triazol-1-yl-phenyl)-imidazo[1,2-b]pyridazin-6-ylamino]-cyclohexanol] | – | – | – |
| 753 nM | OCC1CCC(Nc2ccc3ncc(-c4ccc(-n5cccn5)cc4)n3n2)CC1 (stereo not drawn) [Example 1.9, {4-[3-(4-Pyrazol-1-yl-phenyl)-imidazo[1,2-b]pyridazin-6-ylamino]-cyclohexyl}-methanol] | – | – | – |
| 106 nM | OC1CCC(Nc2ccc3ncc(-c4ccc(-n5cccn5)cc4)n3n2)CC1 (stereo not drawn) [Example 1.5, 4-[3-(4-Pyrazol-1-yl-phenyl)-imidazo[1,2-b]pyridazin-6-ylamino]-cyclohexanol] | – | – | – |
